Experimental data taken from article PMC9784215, “Silymarin Protects against Acute Liver Injury Induced by Acetaminophen by Downregulating the Expression and Activity of the CYP2E1 Enzyme” (Molecules, 2022).
One block for each molecule: values may come before it.

Legend:
CYP2E1 [1] = molecular target: T1, CYP2E1 (Rattus norvegicus, UniProt P05182); experiment: Pharmacokinetics of probe substrate CLX and 6-OH-CLX in rats after 21 days of SM pretreatment; conditions: single oral 30 mg/kg CLX, solvent control group
Procedure: (§1) SD rats were randomly divided into two groups (six rats in each group). One group was orally administered 4% HP-β-CD (w/v) solution as a solvent control group and the other group was orally administered SM 45 mg/kg (dissolved in 4% HP-β-CD (w/v)) for 21 consecutive days. On the 22nd day, rats in the two groups were given a single oral dose of CLX 30 mg/kg (suspended in 0.5% CMC-Na solution (w/v)). […] After the final blood collection, rats were euthanized by intraperitoneal injection of 50% urethane.
(§2) The concentrations of APAP and its metabolites in rat plasma and the concentrations of CLX and 6-OH-CLX in rat plasma, and the phase I metabolic system in vitro were determined by HPLC—MS/MS. […] Briefly, a 50 μL plasma sample was vortexed with 10 μL of the internal standard solution, and 150 μL pf methanol was then added to the mixture and shaken for 3 min to precipitate the protein. The sample was centrifuged at 14,000 rpm for 5 min, and 10 µL of the supernatant was analyzed by LC–MS/MS. […] The noncompartmental analysis using Phoenix WinNonlin software (version 6.3, Pharsight Corp, Mountain View, CA, USA) was used to calculate the pharmacokinetic parameters of CLX and 6-OH-CLX.

Cyp2e1 [2] = experiment: Cyp2e1 mRNA and protein expression in mouse liver (RT-qPCR, Western blot); format: in vivo; conditions: mice, single i.p. APAP 350 mg/kg, 24 h
Source text: Antibodies against CYP2E1 were kindly provided by Proteintech Biotechnology.

APAP-induced ALI mice = experiment: APAP-induced ALI in mice: serum ALT/AST, liver reduced GSH, H&E histology; format: in vivo, mouse; conditions: APAP 350 mg/kg i.p., 24 h
Procedure: The levels of ALT and AST in mouse serum and reduced GSH in mouse livers were measured by West China Frontier Pharmatech (Chengdu, China).
The right lower lobe of the mouse liver was fixed with 4% paraformaldehyde for 24 h in preparation for H&E staining. The embedding and slicing processes for H&E staining were performed by Ao’Chuang Biotechnology Co., Ltd. (Chengdu, China). Images were acquired with a phase contrast microscope with 20× and 40× objective lenses. The scale bars were added with ImageJ software.

CYP2E1 [3] = molecular target: T1, CYP2E1; conditions: in vivo
Procedure: as §1, §2

CYP2E1 [4] = molecular target: T1, CYP2E1; conditions: microsomes
Procedure: (§3) The probe substrate CLX, 50 mM potassium phosphate buffer (KPI, pH 7.4), and 0.25 mg/mL HLMS or RLMs were mixed and then an NADPH-regenerating system (1 mM β-NADP, 5 mM D-glucose-6-phosphate, 1 U/mL glucose-6-phosphate dehydrogenase, and 5 mM MgCl2) were added to initiate reaction. […] HLMs or RLMs were incubated with CLX at 37 °C for 30 min. At the end of the incubation, 100 µL of precooled acetonitrile was added to terminate the reaction. After vortexing and centrifugation at 14,000 rpm for 5 min, 50 µL of supernatant mixed with 10 µL of the internal standard GEN was removed, and the sample was analyzed by HPLC–MS/MS.
(§4) Activities were expressed as a percentage of 6-OH-CLX production in the blank control.
(§5) Nonlinear regression analysis in GraphPad was used to calculate Km and Vmax. To determine the inhibitory type of CYP2E1 by SM, the above data were plotted as a Lineweaver–Burk plot.
(§6) Inhibition data were plotted as Dixon plots, and the inhibition constant (Ki) was calculated from the regression equation.

CYP2E1 [5] = molecular target: CYP2E1 (Homo sapiens, UniProt P05181)
Chain of CYP2E1 (Homo sapiens, UniProt P05181) (P05181 whole entry): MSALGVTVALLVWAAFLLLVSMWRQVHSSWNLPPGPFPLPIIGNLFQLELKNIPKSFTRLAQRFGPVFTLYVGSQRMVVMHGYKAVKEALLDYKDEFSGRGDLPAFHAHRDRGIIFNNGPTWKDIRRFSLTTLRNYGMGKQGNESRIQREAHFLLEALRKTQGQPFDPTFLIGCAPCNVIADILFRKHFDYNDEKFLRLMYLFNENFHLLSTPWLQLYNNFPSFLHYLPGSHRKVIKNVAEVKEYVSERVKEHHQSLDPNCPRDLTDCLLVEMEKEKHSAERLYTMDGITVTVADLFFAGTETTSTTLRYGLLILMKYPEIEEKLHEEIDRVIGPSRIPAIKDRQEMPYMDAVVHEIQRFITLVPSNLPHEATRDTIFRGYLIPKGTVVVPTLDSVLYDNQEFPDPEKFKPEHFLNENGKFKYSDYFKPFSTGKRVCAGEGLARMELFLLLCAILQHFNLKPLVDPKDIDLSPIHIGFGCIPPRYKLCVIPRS
Procedure: as §3, §4, §5, §6

T1 sequence (P05182 whole entry): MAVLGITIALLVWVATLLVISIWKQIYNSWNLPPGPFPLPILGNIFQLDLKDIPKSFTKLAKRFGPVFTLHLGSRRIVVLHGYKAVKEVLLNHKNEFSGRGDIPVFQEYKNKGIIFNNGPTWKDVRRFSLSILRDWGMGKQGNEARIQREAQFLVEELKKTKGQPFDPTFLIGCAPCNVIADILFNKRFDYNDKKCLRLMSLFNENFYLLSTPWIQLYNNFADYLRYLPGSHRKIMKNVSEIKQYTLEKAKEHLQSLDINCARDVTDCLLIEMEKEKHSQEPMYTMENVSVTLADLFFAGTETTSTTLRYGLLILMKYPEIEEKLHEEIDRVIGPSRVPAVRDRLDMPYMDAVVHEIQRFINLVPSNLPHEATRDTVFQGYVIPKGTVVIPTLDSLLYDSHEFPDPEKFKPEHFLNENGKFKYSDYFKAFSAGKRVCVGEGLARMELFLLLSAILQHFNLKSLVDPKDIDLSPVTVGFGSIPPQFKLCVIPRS

Molecule: O=c1[nH]c2cc(Cl)c(O)cc2o1 [6-OH-CLX]
- AUC0-t of 6-OH-CLX (CYP2E1 [1]): 287.58 ± 106.13 ng·h/mL
- AUC0-∞ of 6-OH-CLX (CYP2E1 [1]): 325.78 ± 127.17 ng·h/mL

- liver Cyp2e1 mRNA and protein expression vs solvent control group (Cyp2e1 [2]): significantly upregulated
Molecule: CC(=O)Nc1ccc(O)cc1 [APAP, Acetaminophen]
- liver histopathology (H&E), hepatic lobule structure (APAP-induced ALI mice): severely damaged
- liver reduced GSH content vs solvent control group (APAP-induced ALI mice): significantly reduced
- serum ALT level vs solvent control group (APAP-induced ALI mice): significantly increased
- serum AST level vs solvent control group (APAP-induced ALI mice): significantly increased

- CL of CLX (CYP2E1 [3]): 272.12 ± 41.99 mL/h/kg
- Vd of CLX (CYP2E1 [3]): 1566.26 ± 674.78 mL/kg
- t1/2 of CLX (CYP2E1 [3]): 3.92 ± 1.25 h
- tmax of CLX (CYP2E1 [3]): 34.8 ± 18 min
- IC50 (CYP2E1 [4]): 26.1 µM
- Ki (CYP2E1 [4]): 9.49 µM
- Km of CLX (CYP2E1 [5]): 1827 ± 318 µM
- Vmax of CLX (CYP2E1 [5]): 4.56 ± 1.67 nM/h/mg Protein
- IC50 (CYP2E1 [5]; microsomes): 14.8 µM
- Ki (CYP2E1 [5]; microsomes): 23.2 µM
Molecule: silymarin
